Structures can show the parent of a compound that is named as a salt.
What was measured:
[1] = target: T1, Recombinant human integrin αVβ3 (Homo sapiens, UniProt P05106+P06756); assay: Solid Phase Receptor Assay for αVβ3 function; type: binding; conditions: plate-bound human vitronectin; read-out: αVβ3 SPRA IC50
T1 construct: purchased R&D Systems 3050-AV
Protocol: C. […] Wells were washed 3 times with 150 μL TBS+ and then 150 μL of blocking buffer (TBS+ with 1% bovine serum albumin, Sigma A7906) was added. The plate was incubated for 1 hr at 37° C. and then washed 3× with TBS+ buffer. […] Compounds were diluted to 20 μM and then 1 μL was added to each well of the plate according to a standard template with each sample repeated in triplicate. After incubation for two hours at room temperature, the plate was washed 3× with 150 μL of TBS+ buffer. To each well, 50 μL of biotinylated anti-αV antibody (R&D Systems, BAF1219) at 0.5 μg/mL in TBS+/0.1% BSA were added and the plate covered and incubated for 1 hr at room temperature. After washing the plate 3× with 150 μL of TBS+ buffer, 50 μL of streptavidin-conjugated horseradish peroxidase (R&D Systems, DY998) diluted in TBS+ blocking buffer were added to the wells and the plate incubated for 20 min at room temperature. The plate was washed 3× with TBS+ buffer followed by 50 μL of TMB substrate (Sigma, T4444) added to each well in the dark and the plate was incubated for 25 min at room temperature. 25 μL of 1.0 M phosphoric acid was added as a stop solution and the plates were read at 450 nm using a Spectramax plate reader.

[2] = target: T2, Recombinant human integrin αVβ6 (Homo sapiens, UniProt P06756+P18564); assay: Solid Phase Receptor Assay (SPRA) for αVβ6 function; type: binding; conditions: plate-bound human LAP
T2 construct: purchased R&D Systems 3817-AV
Protocol: E. Solid Phase Receptor Assay (SPRA) for αVβ6 Function
Wells were washed 3 times with 150 μL TBS+, and then 150 μL of blocking buffer (TBS+ with 1% bovine serum albumin, Sigma A7906) was added. The plate was incubated for 1 hr at 37° C., and then washed 3× with TBS+ buffer. […] Compounds were diluted to 20 μM and then 1 μL was added to each well of the plate according to a standard template with each sample repeated in triplicate. After incubation for two hours at room temperature, the plate was washed 3× with 150 μL of TBS+ buffer. To each well, 50 μL of biotinylated anti-αV antibody (R&D Systems, BAF1219) at 0.5 μg/mL in TBS+/0.1% BSA were added and the plate was covered and incubated for 1 hr at room temperature. After washing the plate 3× with 150 μL of TBS+ buffer, 50 μL of streptavidin-conjugated horseradish peroxidase (R&D Systems, DY998) diluted in TBS+ blocking buffer were added to the wells and the plate incubated for 20 min at room temperature. The plate was washed 3× with TBS+ buffer followed by 50 μL of TMB substrate (Sigma T4444) added to each well in the dark and the plate incubated for 10 min at room temperature. 25 μL of 1.0 M phosphoric acid was added as a stop solution and the plates were read at 450 nm using a Spectramax plate reader.

T1 sequence (P06756 31-992 limits assumed): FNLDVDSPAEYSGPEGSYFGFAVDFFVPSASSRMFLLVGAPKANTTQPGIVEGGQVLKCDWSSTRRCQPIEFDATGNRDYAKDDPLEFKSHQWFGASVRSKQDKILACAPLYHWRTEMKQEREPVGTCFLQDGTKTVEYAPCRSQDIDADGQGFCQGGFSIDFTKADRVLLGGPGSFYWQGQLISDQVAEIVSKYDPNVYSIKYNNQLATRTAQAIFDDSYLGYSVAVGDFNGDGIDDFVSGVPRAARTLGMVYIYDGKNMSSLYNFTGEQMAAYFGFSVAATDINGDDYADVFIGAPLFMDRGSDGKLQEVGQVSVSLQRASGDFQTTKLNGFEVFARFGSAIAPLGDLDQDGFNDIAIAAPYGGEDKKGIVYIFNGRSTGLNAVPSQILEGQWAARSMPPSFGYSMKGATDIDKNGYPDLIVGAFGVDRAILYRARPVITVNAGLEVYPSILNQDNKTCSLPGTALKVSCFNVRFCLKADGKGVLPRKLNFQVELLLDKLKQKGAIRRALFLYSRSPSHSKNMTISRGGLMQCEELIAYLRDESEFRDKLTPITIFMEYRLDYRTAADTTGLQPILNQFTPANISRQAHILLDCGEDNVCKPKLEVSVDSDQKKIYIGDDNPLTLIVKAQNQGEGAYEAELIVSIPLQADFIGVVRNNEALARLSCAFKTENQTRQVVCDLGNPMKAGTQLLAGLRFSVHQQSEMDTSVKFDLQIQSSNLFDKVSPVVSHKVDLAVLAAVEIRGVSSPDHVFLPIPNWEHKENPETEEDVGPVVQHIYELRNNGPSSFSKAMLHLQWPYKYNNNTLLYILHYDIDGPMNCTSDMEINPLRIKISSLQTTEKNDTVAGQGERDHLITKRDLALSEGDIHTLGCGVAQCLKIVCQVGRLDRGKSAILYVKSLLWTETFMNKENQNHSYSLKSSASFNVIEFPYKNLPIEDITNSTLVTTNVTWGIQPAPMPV
T1 sequence (P05106 27-718 limits assumed): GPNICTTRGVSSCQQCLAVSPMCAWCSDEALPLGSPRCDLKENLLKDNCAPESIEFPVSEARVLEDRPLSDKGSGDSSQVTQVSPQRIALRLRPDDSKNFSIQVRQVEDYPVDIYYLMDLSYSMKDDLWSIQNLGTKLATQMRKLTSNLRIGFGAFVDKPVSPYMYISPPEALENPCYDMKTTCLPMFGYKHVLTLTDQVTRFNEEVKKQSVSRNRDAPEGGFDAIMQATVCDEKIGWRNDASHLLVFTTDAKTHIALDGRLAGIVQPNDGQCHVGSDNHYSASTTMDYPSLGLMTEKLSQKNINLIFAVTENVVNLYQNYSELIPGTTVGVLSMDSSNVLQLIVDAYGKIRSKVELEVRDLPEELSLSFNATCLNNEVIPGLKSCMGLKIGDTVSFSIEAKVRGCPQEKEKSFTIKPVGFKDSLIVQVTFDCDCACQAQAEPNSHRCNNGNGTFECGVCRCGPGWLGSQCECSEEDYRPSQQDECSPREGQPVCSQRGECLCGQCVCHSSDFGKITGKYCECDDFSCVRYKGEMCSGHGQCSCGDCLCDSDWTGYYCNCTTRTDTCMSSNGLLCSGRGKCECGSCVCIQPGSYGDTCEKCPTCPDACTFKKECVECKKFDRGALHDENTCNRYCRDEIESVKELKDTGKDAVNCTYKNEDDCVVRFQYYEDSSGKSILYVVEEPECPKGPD
T2 sequence (P06756 31-992 limits assumed): as the sequence (P06756 31-992 limits assumed) above
T2 sequence (P18564 22-707 limits assumed): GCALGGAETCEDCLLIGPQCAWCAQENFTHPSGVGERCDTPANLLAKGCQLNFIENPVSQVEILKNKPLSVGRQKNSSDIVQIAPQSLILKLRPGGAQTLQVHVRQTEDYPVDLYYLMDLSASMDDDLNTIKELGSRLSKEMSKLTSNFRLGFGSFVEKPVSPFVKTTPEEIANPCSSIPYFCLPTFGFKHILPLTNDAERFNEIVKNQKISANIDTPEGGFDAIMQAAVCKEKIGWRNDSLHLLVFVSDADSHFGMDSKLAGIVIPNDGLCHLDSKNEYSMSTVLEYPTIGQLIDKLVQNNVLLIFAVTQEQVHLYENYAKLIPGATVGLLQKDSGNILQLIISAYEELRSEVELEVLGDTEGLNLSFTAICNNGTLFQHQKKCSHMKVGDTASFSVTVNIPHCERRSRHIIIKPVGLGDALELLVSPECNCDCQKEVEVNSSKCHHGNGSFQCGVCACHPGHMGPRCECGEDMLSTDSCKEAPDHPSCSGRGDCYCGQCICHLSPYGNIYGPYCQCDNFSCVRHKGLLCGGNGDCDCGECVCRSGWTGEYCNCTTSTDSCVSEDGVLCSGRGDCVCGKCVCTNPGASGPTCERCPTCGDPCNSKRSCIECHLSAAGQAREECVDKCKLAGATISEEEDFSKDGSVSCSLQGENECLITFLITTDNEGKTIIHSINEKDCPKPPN

SMILES: Cn1nc(CC(CC(=O)O)c2cc(C(C)(C)C#N)cc(C(C)(C)C#N)c2)cc1OCCc1ccc2c(n1)NCCC2 (stereo not shown) [Example 41, 3-(3,5-bis(2-cyanopropan-2-yl)phenyl)-4-(1-methyl-5-(2-(5,6,7,8-tetrahydro-1,8-naphthyridin-2-yl)ethoxy)-1H-pyrazol-3-yl)butanoic acid trifluoroacetate]
- IC50 [1]: 9 nM
- IC50 [2]: 37 nM

SMILES: COc1ccc(C2=CCOCC2)cc1C(CC(=O)O)Cc1cc(OCCc2ccc3c(n2)NCCC3)n(C)n1 (stereo not shown) [Example 42]
- IC50 [1]: 58 nM
- IC50 [2]: 17 nM

SMILES: COc1ccc(C2CCOCC2)cc1C(CC(=O)O)Cc1csc(CCCc2ccc3c(n2)NCCC3)n1 (stereo not shown) [Example 43, 3-(2-methoxy-5-(tetrahydro-2H-pyran-4-yl)phenyl)-4-(2-(3-(5,6,7,8-tetrahydro-1,8-naphthyridin-2-yl)propyl)thiazol-4-yl)butanoic acid]
- IC50 [1]: 520 nM
- IC50 [2]: 95 nM

SMILES: COc1ccc(C(CC(=O)O)Cc2cc(OCCc3ccc4c(n3)NCCC4)n(C)n2)cc1F (stereo not shown) [Example 44, 3-(3-fluoro-4-methoxyphenyl)-4-(1-methyl-5-(2-(5,6,7,8-tetrahydro-1,8-naphthyridin-2-yl)ethoxy)-1H-pyrazol-3-yl)butanoic acid]
- IC50 [1]: 2.3 nM
- IC50 [2]: 44 nM

SMILES: COCC1(c2ccc(OC)c(C(CC(=O)O)Cc3cc(OCCc4ccc5c(n4)NCCC5)n(C)n3)c2)CCOCC1 (stereo not shown) [Example 45, 3-(2-methoxy-5-(4-(methoxymethyl)tetrahydro-2H-pyran-4-yl)phenyl)-4-(1-methyl-5-(2-(5,6,7,8-tetrahydro-1,8-naphthyridin-2-yl)ethoxy)-1H-pyrazol-3-yl)butanoic acid]
- IC50 [1]: 1200 nM
- IC50 [2]: 4100 nM

SMILES: COc1ccc(C2CCOCC2)cc1C(CC(=O)O)Cc1cc(OCCc2ccc3c(n2)NCCC3)n(C)n1 (stereo not shown) [Example 46, 3-(2-methoxy-5-(tetrahydro-2H-pyran-4-yl)phenyl)-4-(1-methyl-5-(2-(5,6,7,8-tetrahydro-1,8-naphthyridin-2-yl)ethoxy)-1H-pyrazol-3-yl)butanoic acid]
- IC50 [1]: 310 nM
- IC50 [2]: 260 nM

SMILES: Cn1nc(C[C@@H](CC(=O)O)c2cc3c(c(C(C)(C)C)c2)OCO3)cc1OCCc1ccc2c(n1)NCCC2 [Example 47]
- IC50 [1]: 1.8 nM
- IC50 [2]: 15 nM

SMILES: COCC1(c2ccc(OC)c([C@H](CC(=O)O)Cc3cc(OCCc4ccc5c(n4)NCCC5)n(C)n3)c2)CCOCC1 [Example 48, (S)-3-(2-methoxy-5-(4-(methoxymethyl)tetrahydro-2H-pyran-4-yl)phenyl)-4-(1-methyl-5-(2-(5,6,7,8-tetrahydro-1,8-naphthyridin-2-yl)ethoxy)-1H-pyrazol-3-yl)butanoic acid]
- IC50 [1]: 690 nM
- IC50 [2]: 2800 nM

From patent US20210284638A1 (Saint Louis University, priority 2018, published 2021)
